Measured values as given in US6825199B2, “7-Substituted quinazolin-2,4-diones useful as antibacterial agents” (Warner-Lambert Company, priority 1997, dated 2004).
Converted amounts (≈) assume the structure as drawn. Like-named read-outs stand apart in the source and are kept apart here.

Legend:
S. pyogenes C203 = assay: Antibacterial assay, standard microtitration (MIC); type: cell-based; conditions: Gram positive; for MIC: Streptococcus pyogenes, C203, read-out: Minimum Inhibitory Concentrations S. pyogenes C203
Protocol: (§1) Antibacterial assay: The compounds of the present invention were tested against an assortment of Gram negative and Gram positive organisms using standard microtitration techniques (Cohen, et al., Antimicrob. Agents Chemother., 1985;28:766; Heifetz, et al., Antimicrob. Agents Chemother., 1974;6:124).

B. subtilis RB1 = assay: Antibacterial assay, standard microtitration (MIC); type: cell-based; conditions: Bacillus subtilis, Gram positive, read-out: Minimum Inhibitory Concentrations B. subtilis RB1
Protocol: as §1

E. coli MC4100 = assay: Antibacterial assay, standard microtitration (MIC); type: cell-based; conditions: Gram negative; for MIC: Escherichia coli, MC4100, read-out: Minimum Inhibitory Concentrations E. coli MC4100
Protocol: as §1

S. aureus 29213 = assay: Antibacterial assay, standard microtitration (MIC); type: cell-based; conditions: Gram positive; for MIC: Staphylococcus aureus, 29213, read-out: Minimum Inhibitory Concentrations S. aureus 29213
Protocol: as §1

E. coli B90 = assay: Antibacterial assay, standard microtitration (MIC); type: cell-based; conditions: Gram negative; for MIC: Escherichia coli, B90, read-out: Minimum Inhibitory Concentrations E. coli B90
Protocol: as §1

E. coli Tol C = assay: Antibacterial assay, standard microtitration (MIC); type: cell-based; conditions: for MIC: Escherichia coli, read-out: Minimum Inhibitory Concentrations E. coli Tol C; for Minimum Inhibitory Concentrations E. coli Tol C: Gram negative
Protocol: as §1

E. coli Topoisomerase IV = molecular target: T1, E. coli Topoisomerase IV (Escherichia coli, UniProt P0AFI2+P20083); assay: Topoisomerase IV k-DNA decatenation assay; type: biochemical
T1 construct: made in house; host or cells: E. coli overexpressing strains
Protocol: Topoisomerase IV assay: Topoisomerase IV was purified from E. coli overexpressing strains, and the compounds were assayed according to literature conditions (Journal of Biological Chemistry, 1993;268(32):24481). The k-DNA decatenation assay was used. Briefly, reactions were performed in buffer R (40 mM Tris-HCl (pH 7.5),6 mM MgCl2, 10 mM DTT, 100 mM potassium glutamate, 40 μM ATP, 50 μg/mL bovine serum albumin, 10 mM NaCl). Two-tenths microgram of kinetoplast DNA (k-DNA; TopoGen, Columbus, Ohio) was incubated with 5 ng of E. coli Topoisomerase IV in the presence or absence of test compounds for 10 minutes at 37° C. Subsequently, one-tenth volume of 10×gel loading buffer (0.3% bromophenol blue, 16% Ficoll, 10 mM Na2HPO4) was added, and samples were loaded onto horizontal 0.8% agarose gels prepared with TBE buffer and containing 0.05 μg/mL of ethidium bromide. Electrophoresis was at 70 V for 2 to 4 hours. Gels were then examined by exposure to UV light. The concentration of drug inhibiting 50% of the decantenating activity of Topoisomerase IV is given as an IC50 and recorded in Table 2.

E. coli gyrase = molecular target: T2, E. coli gyrase (Escherichia coli, UniProt P0AES4+P0AES6); assay: DNA gyrase supercoiling inhibition assay; type: biochemical
T2 construct: purchased Lucent, Ltd., Leicester, UK
Protocol: DNA gyrase assay: The effects of test agents on the activity of DNA gyrase was determined by the supercoiling inhibition assay, following reaction conditions recommended by the enzyme supplier (Lucent, Ltd., Leicester, UK), as follows. Reactions were performed in buffer G (35 mM Tris-HCl (pH 7.5), 24 mM KCl, 4 mM MgCl2, 2 mM DTT, 1.8 mM spermidine, 1 mM ATP, 0.1 mg/mL bovine serum albumin). 0.25 μg of relaxed plasmid pBR322 (Lucent, Ltd., Leicester, UK) was reacted with 1 U E. coli gyrase (Lucent, Ltd., Leicester, UK), in the absence or presence of drugs, for 30 minutes at 37° C. Reactions were stopped by the addition of SDS and proteinase K to respective final concentrations of 1% and 0.5 mg/mL. After an additional 30 minutes at 37° C., one-tenth volume of 10×loading buffer (0.3% bromophenol blue, 16% Ficoll, 10 mM Na2HPO4) was added, and reactions were loaded onto agarose gels and electrophoresed as described above for intercalation assays. The concentration of drug inhibiting 50% of the supercoiling activity of DNA gyrase is given as an IC50 and recorded in Table 2.

[1] = supercoiling of relaxed pBR322, 30 minutes at 37° C., read-out: Gyrase IC50
[2] = k-DNA decatenation, 10 minutes at 37° C., read-out: DNA TopIV IC50

T2 sequence (P0AES4 whole entry, one chain of several): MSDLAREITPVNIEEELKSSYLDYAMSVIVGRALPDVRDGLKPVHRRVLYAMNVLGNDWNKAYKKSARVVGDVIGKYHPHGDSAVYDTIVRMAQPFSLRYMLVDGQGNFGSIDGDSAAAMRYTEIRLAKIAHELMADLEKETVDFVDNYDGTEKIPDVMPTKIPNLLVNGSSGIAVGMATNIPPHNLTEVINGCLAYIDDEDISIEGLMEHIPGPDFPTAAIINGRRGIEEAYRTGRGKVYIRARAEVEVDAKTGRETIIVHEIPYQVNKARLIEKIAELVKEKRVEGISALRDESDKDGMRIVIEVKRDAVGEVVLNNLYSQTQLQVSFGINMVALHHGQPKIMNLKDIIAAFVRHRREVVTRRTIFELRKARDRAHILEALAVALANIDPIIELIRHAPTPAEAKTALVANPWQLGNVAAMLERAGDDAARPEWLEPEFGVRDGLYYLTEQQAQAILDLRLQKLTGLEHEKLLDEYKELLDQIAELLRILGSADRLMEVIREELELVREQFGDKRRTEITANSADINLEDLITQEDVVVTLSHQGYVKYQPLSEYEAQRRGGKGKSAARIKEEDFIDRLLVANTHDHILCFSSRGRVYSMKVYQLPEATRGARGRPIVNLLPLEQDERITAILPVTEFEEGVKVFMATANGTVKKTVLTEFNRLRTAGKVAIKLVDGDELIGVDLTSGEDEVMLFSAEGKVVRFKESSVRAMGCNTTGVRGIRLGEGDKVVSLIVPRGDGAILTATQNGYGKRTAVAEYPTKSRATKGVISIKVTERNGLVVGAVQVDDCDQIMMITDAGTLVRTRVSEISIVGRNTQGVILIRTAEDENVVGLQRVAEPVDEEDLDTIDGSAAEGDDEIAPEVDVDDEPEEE
T1 sequence (P20083 whole entry): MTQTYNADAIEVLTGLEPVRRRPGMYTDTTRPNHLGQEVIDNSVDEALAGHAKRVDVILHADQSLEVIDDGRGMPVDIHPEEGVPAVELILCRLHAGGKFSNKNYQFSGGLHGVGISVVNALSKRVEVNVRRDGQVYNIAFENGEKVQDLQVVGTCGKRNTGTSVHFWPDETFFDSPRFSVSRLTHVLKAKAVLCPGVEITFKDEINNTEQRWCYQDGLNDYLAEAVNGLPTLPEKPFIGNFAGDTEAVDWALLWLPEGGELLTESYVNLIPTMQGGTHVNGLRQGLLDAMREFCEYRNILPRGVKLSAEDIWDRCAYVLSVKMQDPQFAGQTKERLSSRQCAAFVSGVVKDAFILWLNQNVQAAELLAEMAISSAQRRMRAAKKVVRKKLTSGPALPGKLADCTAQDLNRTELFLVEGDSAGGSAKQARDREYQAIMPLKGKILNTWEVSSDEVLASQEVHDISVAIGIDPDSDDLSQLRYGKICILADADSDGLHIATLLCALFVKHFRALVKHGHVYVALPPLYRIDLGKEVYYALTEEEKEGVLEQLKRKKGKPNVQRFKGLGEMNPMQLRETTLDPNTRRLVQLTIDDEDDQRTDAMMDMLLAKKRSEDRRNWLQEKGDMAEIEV
T1 sequence (P0AFI2 whole entry): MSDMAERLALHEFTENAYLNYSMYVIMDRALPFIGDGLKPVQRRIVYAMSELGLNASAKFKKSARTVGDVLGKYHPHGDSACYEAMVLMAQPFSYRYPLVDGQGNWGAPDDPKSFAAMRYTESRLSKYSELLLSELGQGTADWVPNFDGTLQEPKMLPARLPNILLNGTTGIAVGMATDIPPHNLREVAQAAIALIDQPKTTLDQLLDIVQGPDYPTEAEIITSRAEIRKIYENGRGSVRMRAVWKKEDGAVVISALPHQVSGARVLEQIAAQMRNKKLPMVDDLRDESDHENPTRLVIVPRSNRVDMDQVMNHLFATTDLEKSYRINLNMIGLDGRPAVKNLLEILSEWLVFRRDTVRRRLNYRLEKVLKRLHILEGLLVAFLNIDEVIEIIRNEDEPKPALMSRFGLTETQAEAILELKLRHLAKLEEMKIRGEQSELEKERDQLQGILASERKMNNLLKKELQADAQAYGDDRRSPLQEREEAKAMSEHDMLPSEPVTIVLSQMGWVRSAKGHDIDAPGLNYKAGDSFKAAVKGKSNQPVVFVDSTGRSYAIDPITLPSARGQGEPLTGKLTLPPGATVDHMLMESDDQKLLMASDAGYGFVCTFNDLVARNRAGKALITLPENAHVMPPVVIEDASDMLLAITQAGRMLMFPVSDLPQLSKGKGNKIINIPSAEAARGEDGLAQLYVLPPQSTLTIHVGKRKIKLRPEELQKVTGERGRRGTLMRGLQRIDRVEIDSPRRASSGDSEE

Row | Structure (SMILES) | MIC (S. pyogenes C203) [mg/L] | MIC (B. subtilis RB1) [mg/L] | MIC (E. coli MC4100) [mg/L] | MIC (S. aureus 29213) [mg/L] | MIC (E. coli B90) [mg/L] | MIC (E. coli Tol C) [mg/L] | IC50 (E. coli Topoisomerase IV) [µM] | IC50 (E. coli gyrase) [µM] | IC50 (E. coli gyrase; [1]) [µM] | IC50 (E. coli Topoisomerase IV; [2]) [µM] | Minimum Inhibitory Concentrations S. pyogenes C203 (S. pyogenes C203) [µg/mL] | Minimum Inhibitory Concentrations E. coli MC4100 (E. coli MC4100) [µg/mL] | Minimum Inhibitory Concentrations S. aureus 29213 (S. aureus 29213) [µg/mL] | Minimum Inhibitory Concentrations E. coli B90 (E. coli B90) [µg/mL] | Minimum Inhibitory Concentrations E. coli Tol C (E. coli Tol C) [µg/mL]
1 | CCn1c(=O)n(O)c(=O)c2cc(F)c(N3CCCC3)cc21 [Example 1, 1-Ethyl-6-fluoro-3-hydroxy-7-pyrrolidin-1-yl-1H-quinazoline-2,4-dione] | 32 (≈ 109 µM) | 4 (≈ 13.6 µM) | > 64 | 32 (≈ 109 µM) | 2 (≈ 6.82 µM) | 1 (≈ 3.41 µM) | – | – | – | – | – | – | – | – | –
2 | CCn1c(=O)n(O)c(=O)c2cc(F)c(N3CCN(C)CC3)cc21 [Example 2, 1-Ethyl-6-fluoro-3-hydroxy-7-(4-methyl-piperazin-1-yl)-1H-quinazoline-2,4-dione] | > 64 | 16 (≈ 49.6 µM) | 16 (≈ 49.6 µM) | > 64 | 4 (≈ 12.4 µM) | 2 (≈ 6.2 µM) | > 100 | 22 | – | – | – | – | – | – | –
3 | CCn1c(=O)n(O)c(=O)c2cc(F)c(N3CCCCC3)cc21 [Example 4, 1-Ethyl-6-fluoro-3-hydroxy-7-piperidin-1-yl-1H-quinazoline-2,4-dione] | 64 (≈ 208 µM) | 8 (≈ 26 µM) | > 64 | 64 (≈ 208 µM) | 16 (≈ 52.1 µM) | 16 (≈ 52.1 µM) | – | – | – | – | – | – | – | – | –
4 | CCn1c(=O)n(O)c(=O)c2cc(F)c(N3CCC(CN)C3)cc21.Cl (stereo not drawn) [Example 6, 7-(3-Aminomethyl-pyrrolidin-1-yl)-1-ethyl-6-fluoro-3-hydroxy-1H-quinazoline-2,4-dione, hydrochloride] | 16 | 32 | 64 | 64 | 8 | 8 | 59 | 5.5 | – | – | – | – | – | – | –
5 | CCn1c(=O)n(O)c(=O)c2cc(F)c(N3CCNCC3)cc21 [Example 7, 1-Ethyl-6-fluoro-3-hydroxy-7-piperazin-1-yl-1H-quinazoline-2,4-dione] | > 64 | > 64 | 16 (≈ 51.9 µM) | > 64 | 4 (≈ 13 µM) | 8 (≈ 25.9 µM) | 49 | > 100 | – | – | – | – | – | – | –
6 | CCn1c(=O)n(O)c(=O)c2cc(F)c(N3CCC(C)(CN)C3)cc21.Cl (stereo not drawn) [Example 9, 7-(3-Aminomethyl-3-methyl-pyrrolidin-1-yl)-1-ethyl-6-fluoro-3-hydroxy-1H-quinazoline-2,4-dione, hydrochloride] | 8 | 16 | 16 | 16 | 4 | 2 | > 100 | 15.5 | – | – | – | – | – | – | –
7 | O=c1c2cc(F)c(N3CCCC3)cc2n(-c2ccc(O)cc2)c(=O)n1O [Example 14, 1-(4-Hydroxyphenyl)-6-fluoro-3-hydroxy-7-pyrrolidin-yl-1-1H-quinazoline-2,4-dione] | 64 (≈ 179 µM) | – | 64 (≈ 179 µM) | 32 (≈ 89.6 µM) | 4 (≈ 11.2 µM) | 1 (≈ 2.8 µM) | – | – | 46 | – | – | – | – | – | –
8 | Cl.NC1CCN(c2cc3c(cc2F)c(=O)n(O)c(=O)n3-c2ccc(F)cc2)C1 (stereo not drawn) [Example 17, 1-(4-Fluorophenyl)-6-fluoro-3-hydroxy-7-(3-aminopyrrolidin-1-yl)-1H-quinazoline-2,4-dione, hydrochloride] | 32 | – | > 64 | > 64 | 64 | 32 | – | – | – | – | – | – | – | – | –
9 | COc1cccc(-n2c(=O)n(O)c(=O)c3cc(F)c(N4CCCC4)cc32)c1 [Example 23, 1-(3-Methoxyphenyl)-6-fluoro-3-hydroxy-7-pyrrolidin-1-yl-1H-quinazoline-2,4-dione] | 32 (≈ 86.2 µM) | – | > 64 | 32 (≈ 86.2 µM) | 32 (≈ 86.2 µM) | 32 (≈ 86.2 µM) | – | – | 36 | > 100 | – | – | – | – | –
10 | O=c1c2cc(F)c(N3CCCC3)cc2n(-c2cccc(F)c2)c(=O)n1O [Example 28, 1-(3-Fluorophenyl)-6-fluoro-3-hydroxy-7-pyrrolidin-1-yl-1H-quinazoline-2,4-dione] | 32 (≈ 89.1 µM) | – | > 64 | 32 (≈ 89.1 µM) | 2 (≈ 5.57 µM) | 2 (≈ 5.57 µM) | – | – | – | – | – | – | – | – | –
11 | O=c1c2cc(F)c(N3CCCC3)nc2n(C2CC2)c(=O)n1O [Example 32, 1-Cyclopropyl-6-fluoro-3-hydroxy-7-pyrrolidin-1-yl-1H-pyrido[2,3-d]pyrimidine-2,4-dione] | 64 (≈ 209 µM) | – | > 64 | 8 (≈ 26.1 µM) | 0.5 (≈ 1.63 µM) | 0.5 (≈ 1.63 µM) | – | – | 6.4 | > 100 | – | – | – | – | –
12 | CCn1c(=O)n(O)c(=O)c2cc(F)c(N3CCC(N)C3)nc21.O=C(O)C(F)(F)F (stereo not drawn) [Example 36, 7-(3-Aminopyrrolidin-1-yl)-1-ethyl-6-fluoro-3-hydroxy-1H-pyrido[2,3-d]pyrimidine-2,4-dione, trifluoroacetate] | 32 | – | 8 | 64 | 2 | 2 | – | – | – | – | – | – | – | – | –
13 | O=c1c2cc(F)c(N3CCCC3)cc2n(C2CC2)c(=O)n1O [Example 38, 1-Cyclopropyl-6-fluoro-3-hydroxy-7-(pyrrolidin-1-yl)-1H-quinazoline-2,4-dione] | 16 (≈ 52.4 µM) | 0.25 (≈ 0.819 µM) | 8 (≈ 26.2 µM) | 1 (≈ 3.28 µM) | 0.1 (≈ 0.328 µM) | 0.1 (≈ 0.328 µM) | – | – | 6.6 | 57 | – | – | – | – | –
14 | NC1CCN(c2cc3c(cc2F)c(=O)n(O)c(=O)n3C2CC2)C1 (stereo not drawn) [Example 39, 7-(3-Amino-pyrrolidin-1-yl)-1-cyclopropyl-6-fluoro-3-hydroxy-1H-quinazoline-2,4-dione] | 4 (≈ 12.5 µM) | 2 (≈ 6.24 µM) | 1 (≈ 3.12 µM) | 32 (≈ 99.9 µM) | 0.3 (≈ 0.937 µM) | 0.25 (≈ 0.78 µM) | – | – | 2.4 | 9 | – | – | – | – | –
15 | N[C@@H]1[C@H]2CN(c3cc4c(cc3F)c(=O)n(O)c(=O)n4C3CC3)C[C@@H]12.O=C(O)C(F)(F)F [Example 42, (1α, 5α, 6α)7-(6-Amino-3-aza-bicyclo[3.1.0]hex-3-yl)-1-cyclopropyl-6-fluoro-3-hydroxy-1H-quinazoline-2,4-dione, trifluoroacetate] | – | – | – | – | – | – | – | – | 0.76 | 28 | 2.0 | 1.0 | 4.0 | 0.25 | 0.25
16 | O=c1c2cc(F)c(N3CCCC3)c3c2n(c(=O)n1O)CCS3 [Example 44, 8-Fluoro-5-hydroxy-9-pyrrolidin-1-yl-2,3-dihydro-1-thia-3α,5-diaza-phenalene-4,6-dione] | 32 (≈ 99 µM) | – | > 64 | 4 (≈ 12.4 µM) | 1 (≈ 3.09 µM) | 1 (≈ 3.09 µM) | – | – | 12 | > 100 | – | – | – | – | –
17 | NC1C2CN(c3c(F)cc4c(=O)n(O)c(=O)n5c4c3SCC5)CC12.O=C(O)C(F)(F)F (stereo not drawn) [Example 46, (1α,5α,6α)9-(6-Amino-3-aza-bicyclo[3.1.0]hex-3-yl)-8-fluoro-5-hydroxy-2,3-dihydro-1-thia-3α,5-diaza-phenalene-4,6-dione, trifluoroacetate] | – | – | – | – | – | – | – | – | 8.3 | – | 32 | 8.0 | >64 | 2.0 | 1.0
18 | O=c1c2cc(F)c(N3CCCC3)nc2n(-c2ccc(F)cc2)c(=O)n1O [Example 56, 6-Fluoro-1-(4-fluorophenyl)-3-hydroxy-7-pyrrolidin-1-yl-1H-pyrido[2,3-d]pyrimidine-2,4-dione] | 8 (≈ 22.2 µM) | – | 16 (≈ 44.4 µM) | 8 (≈ 22.2 µM) | 0.13 (≈ 0.361 µM) | 0.13 (≈ 0.361 µM) | – | – | – | – | – | – | – | – | –
